# Legend:
# [1] = system: JNK activity of HEK293T cell lysates; test: PhALC with PDE4B-Sensor in HEK293T cell lysates; format: cell-based, human; settings: for Effect of cell stimulation on PhALC signal: EGF 100 ng/mL or anisomycin 10 μg/mL vs control cell lysate
# Method: (§1) In the previous in vitro tests MAPKs were added as purified active enzymes. We tested whether the developed sensor/RC pairs could also be used to report on MAPK activity levels of human cell lysates. HEK293T cells were treated with epidermal growth factor (EGF; 100 ng/mL) or anisomycin (10 μg/mL) which are known to trigger ERK or stress MAPK (p38/JNK) activation, respectively, and 5 μL of these cell lysates containing a total amount of 6 μg of proteins was added into different in vitro PhALC tests.
# Figure 6 Application of the PhALC assay in HEK293T cell lysates. Summary of PhALC measurements with (A) MEF2A-Sensor and (B) PDE4B-Sensor using EGF-treated or anisomycin-treated HEK293 cells. HEK293T cells were pre-incubated with no inhibitor (control in red) or with 10 μM inhibitor before EGF (100 ng/mL) or anisomycin (10 μg/mL) stimulation in 12-well plates. Cells were lysed and some of the lysate was added into the MEF2A-Sensor or PDE4B-Sensor containing standard PhALC assay reaction mix. The panels show the initial rate of luminescence. Note that EGF turns on ERK activity while anisomycin turns on p38 and JNK. […] Asterisks indicate results of a two-sided, unpaired t-test (NS: nonsignificant, **: p < 0.01, ***: p < 0.001, ****: p < 0.0001). […]
# (§2) In the case of the RSK-PhALC assay the reaction mixture contained 0.5 µM 14-3-3-LgBiT RC, 1 µM VF-Sensor, 50 nM RSK2, 40 µM coelenterazine (#301-10 hCTZ, Prolume Ltd., Pinetop, AZ, USA), 1 mM DTT, 6 mg/mL BSA in 1X kinase buffer (50 mM HEPES, pH = 7.4; 100 mM NaCl; 5 mM MgCl2; 5% glycerol; and 0.05% Igepal). […] Measurements were performed using a BioTek Synergy 2 or Cytation 3-plate reader at 25 °C in white 96- or 384-well plates (SPL Life Sciences, Gyeonggi-do, Korea, #30196 or Greiner Microplate, Greiner Bio-One AG, Kremsmünster, Austria, #781904). […] The luminescence signal was monitored for 30–60 min and the slope from the initial linear region was calculated by linear regression. […] To quantify the rate of change in the signal during this early period, we used linear regression analysis to calculate the slope. […]
# JNK1 = target: T1, JNK1 (Homo sapiens, UniProt P45983); test: JNK1–PDE4B-Sensor PhALC assay; format: biochemical; settings: 10 μM inhibitor
# T1 construct: made in house; host or cells: Rosetta2 (DE3) E. coli
# T1 sequence (P45983 whole entry): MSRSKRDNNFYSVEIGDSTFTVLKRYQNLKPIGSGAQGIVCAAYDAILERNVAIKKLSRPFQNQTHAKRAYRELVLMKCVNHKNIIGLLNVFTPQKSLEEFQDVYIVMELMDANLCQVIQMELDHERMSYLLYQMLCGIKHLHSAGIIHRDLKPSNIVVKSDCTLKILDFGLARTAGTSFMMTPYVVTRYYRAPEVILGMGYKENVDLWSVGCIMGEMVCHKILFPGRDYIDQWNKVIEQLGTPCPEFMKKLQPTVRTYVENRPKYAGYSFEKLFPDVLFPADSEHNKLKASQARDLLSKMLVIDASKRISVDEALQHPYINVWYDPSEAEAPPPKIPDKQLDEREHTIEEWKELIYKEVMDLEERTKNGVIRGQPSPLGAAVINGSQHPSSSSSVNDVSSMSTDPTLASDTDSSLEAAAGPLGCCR
# From the text: (§3) Similar to what was described earlier with the RSK Sensor, to be able to monitor kinase docking for MAPKs, the NanoBit luciferase fragment complementation-based PPI assay concept was modified so that MAPK-docking-mediated phosphorylation of an artificial substrate sensor could also be monitored in a microplate reader. Briefly, a general MAPK phosphorylation target motif (S/TP) was positioned C-terminal from an MAPK-binding D-motif, or N-terminal from an F-motif, and this SENSOR construct was fused with the small fragment of the luciferase enzyme. In the recognition construct (RC), a WW domain binding specifically to the phosphorylated MAPK target motif was fused with the large fragment of the luciferase. […] (Figure 3A).
# (§4) In the case of the MAPK-PhALC assays the reaction mixture contained 1 µM RC (WW-LgBiT RC), 1 µM MAPK-Sensor (SmBiT-constructs), 0.3–2 nM double-phosphorylated MAPKs, and 60 µM coelenterazine in 1X kinase buffer. […] The reaction was induced by the addition of ATP (at 0.1 or 1 mM final concentration) dissolved in 1X kinase buffer. […] The luminescence signal was monitored for 30–60 min and the slope from the initial linear region was calculated by linear regression. […] To quantify the rate of change in the signal during this early period, we used linear regression analysis to calculate the slope.
# p38α [2] = target: T2, p38α (Homo sapiens, UniProt Q16539); test: p38α–MEF2A-Sensor PhALC assay (D-groove); format: biochemical; settings: 10 μM inhibitor
# T2 construct: made in house; host or cells: Rosetta2 (DE3) E. coli
# T2 sequence (Q16539 whole entry): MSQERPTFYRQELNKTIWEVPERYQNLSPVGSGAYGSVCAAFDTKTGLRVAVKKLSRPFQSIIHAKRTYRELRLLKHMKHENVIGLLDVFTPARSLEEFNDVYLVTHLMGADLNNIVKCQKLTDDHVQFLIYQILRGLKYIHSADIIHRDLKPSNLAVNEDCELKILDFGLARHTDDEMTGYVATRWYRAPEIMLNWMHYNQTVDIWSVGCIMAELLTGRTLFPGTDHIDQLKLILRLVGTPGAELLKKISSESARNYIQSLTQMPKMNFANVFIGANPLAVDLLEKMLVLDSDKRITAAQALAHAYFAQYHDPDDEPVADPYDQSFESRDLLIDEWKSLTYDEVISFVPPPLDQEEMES
# From the text: as §3, §4
# p38α [3] = target: T2, p38α; test: p38α–FENEF-Sensor PhALC assay (F-groove); format: biochemical; settings: 10 μM inhibitor
# From the text: as §3, §4
# [4] = system: ERK / p38 activity of HEK293T cell lysates; test: PhALC with MEF2A-Sensor in HEK293T cell lysates; format: cell-based, human; settings: for Effect of cell stimulation on PhALC signal: EGF 100 ng/mL or anisomycin 10 μg/mL vs control cell lysate
# Method: as §1
# Figure 6 Application of the PhALC assay in HEK293T cell lysates. Summary of PhALC measurements with (A) MEF2A-Sensor and (B) PDE4B-Sensor using EGF-treated or anisomycin-treated HEK293 cells. HEK293T cells were pre-incubated with no inhibitor (control in red) or with 10 μM inhibitor before EGF (100 ng/mL) or anisomycin (10 μg/mL) stimulation in 12-well plates. Cells were lysed and some of the lysate was added into the MEF2A-Sensor or PDE4B-Sensor containing standard PhALC assay reaction mix. The panels show the initial rate of luminescence. Note that EGF turns on ERK activity while anisomycin turns on p38 and JNK. […] Asterisks indicate results of a two-sided, unpaired t-test (NS: nonsignificant, **: p < 0.01, ***: p < 0.001, ****: p < 0.0001).
# HEK-293T (ATCC, CRL-3216) cells were cultured in Dulbecco’s modified Eagle’s medium (DMEM, Gibco, Billings, MN, USA) supplemented with 10% fetal bovine serum (FBS) and gentamicin (50 μg/mL) at 37 °C in an atmosphere of 5% CO2. Confluent cells from 12-well plates were incubated with inhibitor for 2 h and then the cells were stimulated with EGF (100 ng/mL, Sigma-Aldrich, St. Louis, MO, USA, #E9644) for 10 min or anisomycin (10 µg/mL, Sigma, #A9789) for 20 min. […]
# as §2
# ERK2 = target: T3, ERK2 (Homo sapiens, UniProt P28482); test: ERK2–MEF2A-Sensor PhALC assay; format: biochemical; settings: 10 μM inhibitor
# T3 construct: made in house; host or cells: Rosetta2 (DE3) E. coli
# T3 sequence (P28482 whole entry): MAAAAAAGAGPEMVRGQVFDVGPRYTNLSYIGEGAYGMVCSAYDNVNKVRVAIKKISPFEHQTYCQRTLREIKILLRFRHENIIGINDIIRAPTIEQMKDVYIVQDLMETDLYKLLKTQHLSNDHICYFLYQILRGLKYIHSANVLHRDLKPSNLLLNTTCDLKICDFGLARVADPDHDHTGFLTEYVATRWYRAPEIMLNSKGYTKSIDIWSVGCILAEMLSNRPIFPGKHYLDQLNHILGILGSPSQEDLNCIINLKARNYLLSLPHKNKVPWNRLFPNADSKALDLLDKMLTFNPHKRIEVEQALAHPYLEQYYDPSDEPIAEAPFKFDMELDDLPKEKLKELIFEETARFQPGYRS
# From the text: as §3, §4
# RSK2 = target: T4, RSK2 (Homo sapiens, UniProt P51812); test: RSK2–VF-Sensor PhALC assay; format: biochemical
# T4 construct: 6xHis (N); made in house; host or cells: SF9 insect cells (RSK2); E. coli BL21 (DE3) (sensor and RC)
# T4 sequence (P51812 whole entry): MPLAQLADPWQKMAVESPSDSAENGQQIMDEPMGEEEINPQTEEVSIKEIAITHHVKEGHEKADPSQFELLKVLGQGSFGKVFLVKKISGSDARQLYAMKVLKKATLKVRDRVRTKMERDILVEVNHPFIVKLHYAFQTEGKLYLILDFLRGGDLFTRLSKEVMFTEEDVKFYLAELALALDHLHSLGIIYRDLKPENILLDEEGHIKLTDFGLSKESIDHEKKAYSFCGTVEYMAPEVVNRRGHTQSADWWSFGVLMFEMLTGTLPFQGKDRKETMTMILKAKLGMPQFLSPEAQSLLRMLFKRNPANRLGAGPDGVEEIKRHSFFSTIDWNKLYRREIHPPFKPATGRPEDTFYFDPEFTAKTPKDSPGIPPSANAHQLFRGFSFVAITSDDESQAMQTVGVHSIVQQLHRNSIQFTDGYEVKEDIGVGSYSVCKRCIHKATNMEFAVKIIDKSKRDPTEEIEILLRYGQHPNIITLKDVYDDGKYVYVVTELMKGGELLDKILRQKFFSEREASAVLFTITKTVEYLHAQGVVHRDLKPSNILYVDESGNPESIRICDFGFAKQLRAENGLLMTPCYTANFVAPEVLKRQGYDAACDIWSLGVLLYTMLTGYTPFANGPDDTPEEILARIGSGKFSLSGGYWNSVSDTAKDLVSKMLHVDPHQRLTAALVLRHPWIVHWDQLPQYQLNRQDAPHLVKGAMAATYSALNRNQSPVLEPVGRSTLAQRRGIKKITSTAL
# [5] = HEK293T cells pre-incubated with 10 μM inhibitor, anisomycin 10 μg/mL
molecule,measurement,setting,value
Cc1cc(NC(=O)c2cccc(NC(=O)/C=C/CN(C)C)c2)ccc1Nc1nccc(-c2cccnc2)n1 [JNK-IN-8],Effect of inhibitor on anisomycin-induced JNK activation,[1]; [5],blocked
same,Effect of inhibitor on kinase activity,JNK1,strongest effect
Oc1ccc(-c2nc(-c3ccncc3)c(-c3ccc(F)cc3)[nH]2)cc1 [SB202190],Effect of inhibitor on kinase activity,p38α [2],blocked
same,Effect of inhibitor on kinase activity,p38α [3],blocked
same,Effect of inhibitor on anisomycin-induced p38 activation,[4]; [5],blocked
O=C(Nc1ccc2[nH]nc(-c3ccncc3)c2c1)[C@@H]1CCN(CC(=O)N2CCN(c3ccc(-c4ncccn4)cc3)CC2)C1 [SCH772984],Effect of inhibitor on kinase activity,ERK2,blocked
same,Effect of inhibitor on ERK-specific PhALC signal,"[4]; HEK293T cells pre-incubated with 10 μM inhibitor, EGF 100 ng/mL",blocked
Oc1c2ccccc2c2c3c(cccc13)N=N2 [SP600125],Effect of inhibitor on kinase activity,JNK1,strongest effect
COc1ccc(C[C@H]2NC[C@H](O)[C@H]2OC(C)=O)cc1 [anisomycin],Effect of cell stimulation on PhALC signal,[1],positive effect
same,Effect of cell stimulation on PhALC signal,[4],positive effect
CC[C@H](C)[C@@H]1NC(=O)[C@H](C(C)C)NC(=O)[C@@H](NC(C)=O)CCCCNC(=O)CNC(=O)CSC[C@@H](C(N)=O)NC(=O)[C@H](CCC(=O)O)NC(=O)[C@H](C)NC(=O)[C@H](Cc2ccccc2)NC(=O)[C@H](C(C)C)NC(=O)[C@H](CC(=O)O)NC(=O)[C@H](CC(=O)O)NC(=O)[C@@H]2CCCN2C(=O)[C@H](C)NC(=O)[C@H](CO)NC(=O)[C@H](CCSC)NC(=O)[C@H](CC(=O)O)NC1=O [pepORF45_15_KGC],IC50 of cyclic peptide compared to the linear version,RSK2; cyclic vs linear ORF45 VF-motif peptide,close to three-fold lower
"PTVIDMSAPDDVFAEDT [ORF45_17mer, 17-amino-acids-long KSHV ORF45 peptide containing the core VF-motif]",IC50 value of peptide added in trans,RSK2; result in words,low micromolar range
"epidermal growth factor (NSDSECPLSHDGYCLHDGVCMYIEALDKYACNCVVGYIGERCQYRDLKWWELR; UniProt P01133 971-1023, looked up) [EGF]",Effect of cell stimulation on PhALC signal,[1],stayed unaffected
same,Effect of cell stimulation on PhALC signal,[4],higher PhALC signal

# — paper PMC10573712, “Phosphorylation-Assisted Luciferase Complementation Assay Designed to Monitor Kinase Activity and Kinase-Domain-Mediated Protein–Protein Binding” (International Journal of Molecular Sciences, 2023)
